In US5922734A, “6-[triazolyl[3-(trifluoromethyl)phenyl]methyl]-2-quinolines and -quinolinethiones” (Janssen Pharmaceutica, N.V., priority 1994, dated 1999) one finds IC50 and minimal effective dose data, which are given here for 17 compounds.

Broadly, the IC50 is the concentration at which inhibition is half-maximal. A high value points to lower potency.

The test system of experiment [1] is retinoic acid (RA) metabolism. The experiment is described as follows: Inhibition of retinoic acid (RA) metabolism in MCF-7 human breast cancer cells. Format: cell-based. Particulars: MCF7, 3H-RA substrate, Table 1. Here is the method: MCF-7 human breast cancer cells were grown as stock cultures according to art-known protocols. One day before the experiment, RA is added to the stock cultures to stimulate RA-metabolism. At the start of the experiment, cell suspensions were incubated in a tissue culture medium containing ^3 H-RA as the substrate. Different concentrations of the test compound (dissolved in 1% DMSO) were added to the incubation mixtures, and at the end of the incubation, the unmetabolized RA is separated from its polar metabolites. The fraction containing the polar ^3 H-labelled metabolites was collected and counted in a scintillation counter. For each experiment, a control and a blank incubation were run in parallel. The IC50 values listed in table 1 are the concentrations needed to reduce the amount of metabolites to 50% of the control.

Experiment [2] concerns estradiol undecylate induced keratinization effects. In words: Vaginal Keratinization Test on Ovariectomized Rats. Particulars: Rattus norvegicus, po, lowest active dose. Format: in vivo. Here is the method:
Ovariectomized rats were injected subcutaneously with a sesame oil solution containing 100 μg of estradiol undecylate in a volume of 0.1 ml per 100 g body weight and control animals were injected with sesame oil. On day one, two and three, test animals were treated once daily with a per os dose of the test compound and control animals with the drug vehicle (PEG 200). One day after the last treatment, the animals were sacrificed and their vaginas were processed for histological evaluation according to the method described in J. Pharmacol. Exp. Ther. 261(2), 773-779 (1992). A dose at which 50% of the tested rats show complete suppression of the estradiol undecylate induced keratinization effects is defined as an active dose.
In said table, the keratinization effect of the present compound number 3 is compared to the structurally closest art-known compounds, the latter being disclosed in EP-0,371,564.

The mark [3] stands for this setting: 72 h, 50% of ovariectomized rats show complete suppression, per os once daily, 3 days, Table 1, read-out: Keratinization (LAD in mg/kg).
[4] abbreviates: keratinization effect, per os, ovariectomized rats, comparison with EP-0,371,564 compounds, Table 2, read-out: LAD.

Read-outs that look alike come from different tables or passages of the source. Where only a bound is given, the exact number is not on record here.

In experiment [1], `O=c1ccc2cc(C(c3cccc(C(F)(F)F)c3)n3cncn3)ccc2[nH]1` (racemic) [Compound 3, (±)-6-[1H-1,2,4-triazol-1-yl[3-(trifluoromethyl)phenyl]methyl]-2(1H)-quinolinone] gave an IC50 of 851 nM. Moreover, the minimal effective dose in experiment [2] (setting [3]) and in experiment [2] (setting [4]) was 2.5 mg/kg in each case.

Regarding `Cn1c(=O)ccc2cc(C(c3cccc(C(F)(F)F)c3)n3cncn3)ccc21` (racemic) [Compound 12, (±)-1methyl-6-[1H-1,2,4-triazol-1-yl[3-(trifluoromethyl)phenyl]methyl]-2(1H)-quinolinone], half-maximal inhibition in experiment [1] (IC50) required 8590 nM. Moreover, in experiment [2] (setting [3]), the minimal effective dose turned out to be 2.5 mg/kg.

As for `Nn1c(=O)ccc2cc(C(c3cccc(C(F)(F)F)c3)n3cncn3)ccc21` (racemic) [Compound 20, (±)-(1-amino-6-[1H-1,2,4-triazol-1-yl-[3-(trifluoromethyl)phenyl]methyl]-2(1H)-quinolinone], half-maximal inhibition in experiment [1] (IC50) required 1470 nM. The minimal effective dose in experiment [2] (setting [3]) was 5 mg/kg.

With `Cn1c(=S)ccc2cc(C(c3cccc(C(F)(F)F)c3)n3cncn3)ccc21` (racemic) [Compound 21, (±)-1-methyl-6-[1H-1,2,4-triazol-1-yl[3-(trifluoromethyl]phenyl]methyl]-2(1H)-quinolinethione], the IC50 in experiment [1] turned out to be 4370 nM. Further, in experiment [2] (setting [3]), the minimal effective dose is 5 mg/kg.

For the compound `O=c1ccc2cc([C@H](c3cccc(C(F)(F)F)c3)n3cncn3)ccc2[nH]1` [Compound 1, (-)-(R)-6-[1H-1,2,4-triazol-1-yl[3-(trifluoromethyl)phenyl]methyl]-2(1H)-quinolinone], the IC50 in experiment [1] came out at 850 nM. The minimal effective dose in experiment [2] (setting [3]) amounted to 1.25 mg/kg.

`O=c1ccc2cc([C@@H](c3cccc(C(F)(F)F)c3)n3cncn3)ccc2[nH]1` [Compound 2] gave an IC50 in experiment [1] of 3850 nM. Further, the minimal effective dose in experiment [2] (setting [3]) was more than 40 mg/kg.

On to `CC(c1cccc(C(F)(F)F)c1)(c1ccc2[nH]c(=O)ccc2c1)n1cncn1` (centres unmarked) [Compound 4], for which the IC50 in experiment [1] stood at 510 nM. Further, in experiment [2] (setting [3]), the minimal effective dose was 5 mg/kg.

In the case of `O=c1ccc2cc(C(F)(c3cccc(C(F)(F)F)c3)n3cncn3)ccc2[nH]1` (centres unmarked) [Compound 5], in experiment [1], the IC50 is more than 10000 nM. The minimal effective dose in experiment [2] (setting [3]) came out at 5 mg/kg.

The compound `CCC(c1cccc(C(F)(F)F)c1)(c1ccc2[nH]c(=O)ccc2c1)n1cncn1` (centres unmarked) [Compound 6] yielded an IC50 in experiment [1] of 18.2 nM. The minimal effective dose in experiment [2] (setting [3]) came out at 10 mg/kg.

Consider `CC(C)C(c1cccc(C(F)(F)F)c1)(c1ccc2[nH]c(=O)ccc2c1)n1cncn1` (centres unmarked) [Compound 7], for which the IC50 in experiment [1] was 270 nM. For the same compound, the minimal effective dose in experiment [2] (setting [3]) was more than 20 mg/kg.

For `Cc1cc(C(c2cccc(C(F)(F)F)c2)n2cncn2)cc2ccc(=O)[nH]c12` (centres unmarked) [Compound 9], in experiment [1], the IC50 amounted to 706 nM. The minimal effective dose in experiment [2] (setting [3]) was 10 mg/kg.

In turn, `O=c1ccc2c(Cl)c(C(c3cccc(C(F)(F)F)c3)n3cncn3)ccc2[nH]1` (centres unmarked) [Compound 10] displayed an IC50 in experiment [1] of 764 nM. Besides, the minimal effective dose in experiment [2] (setting [3]) amounted to 10 mg/kg.

`O=c1ccc2cc(C(c3cccc(F)c3)n3ccnc3)ccc2[nH]1` (centres unmarked) [Compound 11-a, reference compound]: the minimal effective dose in experiment [2] (setting [4]) stood at 40 mg/kg.

In experiment [1], `O=c1ccc2cc(C(c3cccc(C(F)(F)F)c3)n3cncn3)cc(F)c2[nH]1` (centres unmarked) [Compound 11] returned an IC50 of 154 nM. For the same compound, the minimal effective dose in experiment [2] (setting [3]) was found to be 10 mg/kg.

With `Cn1c(=O)ccc2cc(C(F)(c3cccc(C(F)(F)F)c3)n3cncn3)ccc21` (centres unmarked) [Compound 13], in experiment [1], the midpoint of inhibition, the IC50, lay at 10.2 nM. This counts as double-digit nanomolar.

Turning to `Cn1c(=O)ccc2cc(C(C)(c3cccc(C(F)(F)F)c3)n3cncn3)ccc21` (centres unmarked) [Compound 14], in experiment [1], inhibition was half-maximal at 3.25 nM (IC50). Also, the minimal effective dose in experiment [2] (setting [3]) is 5 mg/kg.

For the compound `FC(F)(F)c1cccc(C(c2ccc3ncccc3c2)n2cncn2)c1` (centres unmarked) [Compound 66-a, reference compound], in experiment [2] (setting [4]), the minimal effective dose is 10 mg/kg.
